14 compounds from patent US6218393A, “Anthranilic acid derivatives as multi drug resistance modulators” (priority 1997, dated 2001) can be followed below.

In data set [1] the test system is AR 1.0 cells. Put plainly: Potentiation of doxorubicin toxicity: proliferation assay (sulphorhodamine B). Format: cell-based, mouse. The source says: (a) Selected compounds of formula (I) were examined for their ability to potentiate the toxicity of doxorubicin in AR 1.0 cells.
Data set [2] relates to AR 1.0 cells. The data set is described as follows: Drug accumulation assay: daunorubicin accumulation in AR 1.0 cells. The format is cell-based. The following applies: Mus musculus, 100% = accumulation with verapamil 100 μM, 1 hr, 37° C. The method in brief: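 AR 1.0 is the MDR-resistant subline of EMT6 mouse mammary carcinoma, grown in RPMI 1640 with 10% foetal calf serum and 2 mM glutamine at 37 °C, 5% CO2. Cells were seeded 48 h before the daunorubicin accumulation assay.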

For data set [3], the system named is AR 1.0 cells. Put plainly: Potentiation index with doxorubicin titration. Format: cell-based, mouse. The settings on record: for Potentiation Index at RMA concentration 500 nM: Table C2, RMA 500 nM; for Potentiation Index at RMA concentration 100 nM: Table C2, RMA 100 nM; for Potentiation Index at RMA concentration 300 nM: Table C2, RMA 300 nM. The gist of the method:
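MDR-resistant mouse EMT6 subline AR 1.0 grown four days with a doxorubicin titration (0.263 nM-17.24 μM) plus a fixed compound concentration; proliferation by sulphorhodamine B. Potentiation index derived from doxorubicin IC50 alone versus with compound.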

[4] abbreviates: Mus musculus, 96 h, compound alone, four day proliferation, read-out: Compound Toxicity (IC50).
Where [5] appears, read: with fixed doxorubicin 0.34 μm, four days, 5760 min, read-out: Toxicity with Cytotoxic Agent (IC50).

As to `COc1cc2c(cc1OC)CN(CCNC(=O)c1ccc(F)cc1NC(=O)c1ccc(C(C)C)cc1)CC2` [compound 9349, 2-(4-Isopropyl-benzoylamino)-N-[2-(6,7-dimethoxy-3,4-dihydro-1H-isoquinolin-2-yl)-ethyl]-4-fluoro-benzamide], the IC50 in data set [1] (setting [4]) worked out at 5500 nM; in data set [1] (setting [5]), 140 nM; in data set [2], 300 nM. For the same compound, the “Potentiation Index at RMA concentration 500 nM” value in data set [3] is 22.

As to `COc1cc2c(cc1OC)CN(CCc1ccc(NC(=O)c3ccccc3NC(=O)c3cnccn3)cc1)CC2` [compound 9493, Pyrazine-2-carboxylic acid (2-{4-[2-(6,7-dimethoxy-3,4-dihydro-1H-isoquinolin-2-yl)-ethyl]-phenylcarbamoyl}-phenyl)-amide], in data set [1] (setting [4]), the IC50 worked out at 9000 nM. Also, in data set [1] (setting [5]), the IC50 came to 50 nM. In data set [2], this compound displayed a half-maximal inhibitory concentration (IC50) of 220 nM. Moreover, in data set [3], the “Potentiation Index at RMA concentration 100 nM” value turned out to be 7.6, the “Potentiation Index at RMA concentration 300 nM” value stood at 85 and the “Potentiation Index at RMA concentration 500 nM” value stood at 200.

Take `COc1cc2c(cc1OC)CN(CCc1ccc(NC(=O)c3ccccc3NC(=O)c3cccc(C)c3)cc1)CC2` [compound 9503, 2-(3-Methyl-benzoylamino)-N-{4-[2-(6,7-dimethoxy-3,4-dihydro-1H-isoquinolin-2-yl)-ethyl]-phenyl}-benzamide]: the IC50 in data set [1] (setting [4]) is 3500 nM; in data set [1] (setting [5]), 90 nM; in data set [2], 2000 nM. Besides, the “Potentiation Index at RMA concentration 300 nM” value in data set [3] worked out at 36. Further, in data set [3], the “Potentiation Index at RMA concentration 500 nM” value was 77.

Regarding `COc1cc2c(cc1OC)CN(CCNC(=O)c1ccccc1NC(=O)c1ccc(OCc3ccccc3)cc1)CC2` [compound 9460, 2-(4-Benzyloxy-benzoylamino)-N-[2-(6,7-dimethoxy-3,4-dihydro-1H-isoquinolin-2-yl)-ethyl]-benzamide], the IC50 came to 7500 nM in data set [1] (setting [4]), 180 nM in data set [1] (setting [5]) and 1000 nM in data set [2]. In addition, the “Potentiation Index at RMA concentration 300 nM” value in data set [3] came to 18. Further, the “Potentiation Index at RMA concentration 500 nM” value in data set [3] stood at 36.

As for `COc1cc2c(cc1OC)CN(CCc1ccc(NC(=O)c3ccccc3NC(=O)c3cccs3)cc1)CC2` [compound 9471, Thiophene-2-carboxylic acid (2-{4-[2-(6,7-dimethoxy-3,4-dihydro-1H-isoquinolin-2-yl)-ethyl]-phenylcarbamoyl}-phenyl)-amide], the IC50 in data set [1] (setting [4]) is 2600 nM; in data set [2] it was 200 nM. Moreover, the “Potentiation Index at RMA concentration 300 nM” value in data set [3] was 115. The “Potentiation Index at RMA concentration 500 nM” value in data set [3] was 230.

With `COc1cc2c(cc1OC)CN(CCc1ccc(NC(=O)c3ccccc3NC(=O)c3c(F)cccc3F)cc1)CC2` [compound 9514, 2-(2,6-Difluoro-benzoylamino)-N-{4-[2-(6,7-dimethoxy-3,4-dihydro-1H-isoquinolin-2-yl)-ethyl]-phenyl}-benzamide], the IC50 in data set [1] (setting [4]) stood at 7000 nM. In addition, it took 250 nM to reach half-maximal inhibition in data set [2] (IC50). Also, in data set [3], the “Potentiation Index at RMA concentration 300 nM” value worked out at 40 and the “Potentiation Index at RMA concentration 500 nM” value was 120.

For the compound `COc1cc2c(cc1OC)CN(CCc1ccc(NC(=O)c3ccccc3NC(=O)c3ccc4ccccc4c3)cc1)CC2` [compound 9476, Naphthaiene-2-carboxylic acid (2-{4-[2-(6,7-dimethoxy-3,4-dihydro-1H-isoquinolin-2-yl)-ethyl]-phenylcarbamoyl}-phenyl)-amide], the IC50 stood at 2000 nM in data set [1] (setting [4]) and 350 nM in data set [2]. In addition, the “Potentiation Index at RMA concentration 300 nM” value in data set [3] came to 83. The “Potentiation Index at RMA concentration 500 nM” value in data set [3] is on record as 136.

As for `COc1cc2c(cc1OC)CN(CCc1ccc(NC(=O)c3ccccc3NC(=O)c3ccc(C4CCCCC4)cc3)cc1)CC2` [compound 9461, 2-(4-Cyclohexyl-benzoylamino)-N-{4-[2-(6,7-dimethoxy-3,4-dihydro-1H-isoquinolin-2-yl)-ethyl]-phenyl}-benzamide], the IC50 came out at 7500 nM in data set [1] (setting [4]), 300 nM in data set [1] (setting [5]) and 1800 nM in data set [2]. The “Potentiation Index at RMA concentration 300 nM” value in data set [3] came to 13. In addition, the “Potentiation Index at RMA concentration 500 nM” value in data set [3] is 30.

`COc1cc2c(cc1OC)CN(CCc1ccc(NC(=O)c3c(F)cccc3NC(=O)c3cnc4ccccc4n3)cc1)CC2` [compound 9564, Quinoxaline-2-carboxylic acid (2-{4-[2-(6,7-dimethoxy-3,4-dihydro-1H-isoquinolin-2-yl)-ethyl]-phenylcarbamoyl}-3-fluoro-phenyl)-amide]: the concentration for half-maximal inhibition (IC50) in data set [1] (setting [4]) stood at 400 nM; in data set [1] (setting [5]), 8 nM; in data set [2] it was 200 nM. The “Potentiation Index at RMA concentration 100 nM” value in data set [3] is on record as 129.

Take `COc1cc2c(cc1OC)CN(CCNC(=O)c1ccc([N+](=O)[O-])cc1NC(=O)c1ccc(C(C)C)cc1)CC2` [compound 9420, 2-(4-Isopropyl-benzoylamino)-N-[2-(6,7-dimethoxy-3,4-dihydro-1H-isoquinolin-2-yl)-ethyl]-4-nitro-benzamide]: the values for the IC50 in data set [1] (setting [4]), in data set [1] (setting [5]) and in data set [2] were 7000 nM, 400 nM and 1900 nM, respectively. Further, the “Potentiation Index at RMA concentration 500 nM” value in data set [3] was determined as 25.

Consider `COc1cc2c(cc1OC)CN(CCNC(=O)c1ccccc1NC(=O)c1ccc(C(=O)c3ccccc3)cc1)CC2` [compound 9427, 2-(4-Benzoyl-benzoylamino)-N-[2-(6,7-dimethoxy-3,4-dihydro-1H-isoquinolin-2-yl)-ethyl]-benzamide], for which, in data set [1] (setting [4]), the IC50 was 10000 nM. This compound gave a 50% inhibitory concentration (IC50) in data set [2] of 530 nM. Besides, in data set [3], the “Potentiation Index at RMA concentration 300 nM” value stood at 14 and the “Potentiation Index at RMA concentration 500 nM” value is listed as 32.

Regarding `COc1cc2c(cc1OC)CN(CCNC(=O)c1ccccc1NC(=O)c1ccc(Oc3ccccc3)cc1)CC2` [compound 9426, 2-(4-Phenoxy-benzoylamino)-N-[2-(6,7-dimethoxy-3,4-dihydro-1H-isoquinolin-2-yl)-ethyl]-benzamide], the half-maximal inhibitory concentration (IC50) in data set [1] (setting [4]) was 7000 nM; in data set [1] (setting [5]), 60 nM; in data set [2] it was 690 nM. Besides, the “Potentiation Index at RMA concentration 500 nM” value in data set [3] is listed as 65.

Consider `COc1cc2c(cc1OC)CN(CCc1ccc(NC(=O)c3ccccc3NC(=O)c3ccc(C(C)C)cc3)cc1)CC2` [compound 9447, 2-(4-Isopropyl-benzoylamino)-N-{4-[2-(6,7-dimethoxy-3,4-dihydro-1H-isoquinolin-2-yl)-ethyl]-phenyl}-benzamide], for which the half-inhibitory concentration (IC50) was found to be 6800 nM in data set [1] (setting [4]), 65 nM in data set [1] (setting [5]) and 700 nM in data set [2]. Also, in data set [3], the “Potentiation Index at RMA concentration 300 nM” value came out at 40. Further, the “Potentiation Index at RMA concentration 500 nM” value in data set [3] is on record as 340.

For `COc1cc2c(cc1OC)CN(CCc1ccc(NC(=O)c3cc(C)ccc3NC(=O)c3cnc4ccccc4n3)cc1)CC2` [compound 9543, Quinoxaline-2-carboxylic acid (2-{4-[2-(6,7-dimethoxy-3,4-dihydro-1H-isoquinolin-2-yl)-ethyl]-phenylcarbamoyl}-4-methyl-phenyl)-amide], the IC50 came out at 900 nM in data set [1] (setting [4]), 8 nM in data set [1] (setting [5]) and 70 nM in data set [2]. For the same compound, in data set [3] (Table C2, RMA 10 nM), the “Potentiation Index at RMA concentration 10 nM” value is on record as 24. Moreover, in data set [3] (Table C2, RMA 30 nM), the “Potentiation Index at RMA concentration 30 nM” value is on record as 120. In data set [3], the “Potentiation Index at RMA concentration 100 nM” value is given as 150. For the same compound, the “Potentiation Index at RMA concentration 300 nM” value in data set [3] is reported as 150.

Broadly, the IC50 is the concentration at which inhibition is half-maximal.
